Assay results published in ChEMBL document CHEMBL5365529, “Construction and Evaluation of Novel Dual-function Antifungal Inhibitors and Covalent Organic Framework Carriers Based on the Infection Microenvironment” (J Med Chem, 2023).
≈ marks a conversion by molar mass, not a printed value. Calls of active or inactive are those of the source. The rule behind the calls is not given here.

Key:
[1] = test system: Cryptococcus neoformans; assay: Antifungal activity against Cryptococcus neoformans ZKCC 2209 assessed as fungal growth inhibition incubated for 72 hrs by CLSI based susceptibility test; type: functional
[2] = test system: Candida albicans; assay: Antifungal activity against Candida albicans SC5314 assessed as fungal growth inhibition incubated for 72 hrs by CLSI based susceptibility test; type: functional
[3] = test system: Nakaseomyces glabratus; assay: Antifungal activity against Candida glabrata assessed as fungal growth inhibition incubated for 72 hrs by CLSI based susceptibility test; type: functional
[4] = test system: Aspergillus fumigatus; assay: Antifungal activity against Aspergillus fumigatus KM8001 assessed as fungal growth inhibition incubated for 72 hrs by CLSI based susceptibility test; type: functional
[5] = test system: Candida tropicalis; assay: Antifungal activity against Candida tropicalis ATCC 1369 assessed as fungal growth inhibition incubated for 72 hrs by CLSI based susceptibility test; type: functional
[6] = test system: Candida albicans; assay: Antifungal activity against FLC-resistant Candida albicans CaR assessed as fungal growth inhibition incubated for 72 hrs by CLSI based susceptibility test; type: functional
[7] = target: T1, Lanosterol 14-alpha demethylase (Candida albicans (strain SC5314 / ATCC MYA-2876) (Yeast), UniProt P10613); assay: Inhibition of CYP51 in Candida albicans SC5314 using lanosterol as substrate incubated for 60 mins by HPLC analysis
T1 sequence (P10613 whole entry): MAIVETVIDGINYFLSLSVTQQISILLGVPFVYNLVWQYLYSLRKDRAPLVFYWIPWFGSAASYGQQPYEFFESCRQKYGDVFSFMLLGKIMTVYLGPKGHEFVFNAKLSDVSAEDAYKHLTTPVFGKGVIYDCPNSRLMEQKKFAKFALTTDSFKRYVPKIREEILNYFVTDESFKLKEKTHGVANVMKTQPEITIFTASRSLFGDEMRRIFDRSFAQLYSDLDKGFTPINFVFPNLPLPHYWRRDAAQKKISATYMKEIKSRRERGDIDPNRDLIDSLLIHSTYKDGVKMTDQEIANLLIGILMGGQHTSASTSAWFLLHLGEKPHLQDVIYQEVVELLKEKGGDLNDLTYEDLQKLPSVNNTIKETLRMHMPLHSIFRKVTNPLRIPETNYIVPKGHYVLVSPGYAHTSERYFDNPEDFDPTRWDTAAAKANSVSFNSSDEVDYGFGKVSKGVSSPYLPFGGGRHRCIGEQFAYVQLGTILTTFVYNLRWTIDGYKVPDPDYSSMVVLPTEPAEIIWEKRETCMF

[8] = target: T1, Lanosterol 14-alpha demethylase; assay: Inhibition of CYP51 in Candida albicans SC5314 assessed as unknown sterol level at 4 ug/ml incubated for 16 hrs by GC-MS analysis (reference value: 5.35 %); design: scale not given: the % may be the effect or the level left; details: at 4 µg/mL
[9] = test system: Candida albicans; assay: Antifungal activity against FLC-resistant Candida albicans 901 assessed as fungal growth inhibition incubated for 72 hrs by CLSI based susceptibility test; type: functional
[10] = target: T1, Lanosterol 14-alpha demethylase; assay: Inhibition of CYP51 in Candida albicans SC5314 assessed as lanosterol level at 4 ug/ml incubated for 16 hrs by GC-MS analysis relative to control; design: scale not given: the % may be the effect or the level left; details: at 4 µg/mL
[11] = test system: Candida albicans; assay: Antifungal activity against FLC-resistant Candida albicans 904 assessed as fungal growth inhibition incubated for 72 hrs by CLSI based susceptibility test; type: functional
[12] = test system: Candida albicans; assay: Antifungal activity against FLC-resistant Candida albicans 632 assessed as fungal growth inhibition incubated for 72 hrs by CLSI based susceptibility test; type: functional
[13] = target: T2, Programmed cell death 1 ligand 1 (Homo sapiens, UniProt Q9NZQ7); assay: Inhibition of human PD-L1 incubated for 15 mins by ELISA method
T2 sequence (Q9NZQ7 whole entry): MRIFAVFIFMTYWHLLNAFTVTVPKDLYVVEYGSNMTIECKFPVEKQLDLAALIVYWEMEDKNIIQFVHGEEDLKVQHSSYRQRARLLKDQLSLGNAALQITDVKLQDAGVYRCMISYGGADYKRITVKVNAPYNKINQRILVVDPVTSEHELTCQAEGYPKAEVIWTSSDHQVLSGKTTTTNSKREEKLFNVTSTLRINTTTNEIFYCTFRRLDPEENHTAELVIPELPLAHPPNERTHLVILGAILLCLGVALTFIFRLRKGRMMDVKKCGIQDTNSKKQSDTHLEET

[14] = test system: Candida albicans; assay: Induction of apoptosis in Candida albicans SC5314 assessed as apoptotic cells incubated for 48 hrs by annexin V-FITC/PI staining based flow cytometry (reference value: 2.12 %); type: functional
[15] = target: T1, Lanosterol 14-alpha demethylase; assay: Inhibition of CYP51 in Candida albicans SC5314 assessed as ergosterol level at 4 ug/ml incubated for 16 hrs by GC-MS analysis (reference value: 92.07 %); design: scale not given: the % may be the effect or the level left; details: at 4 µg/mL
[16] = test system: Candida albicans; assay: Induction of mitochondrial membrane depolarization in Candida albicans SC5314 by JC-1 staining based flow cytometry (reference value: 12.51 %); type: functional
[17] = test system: Candida albicans; assay: Induction of apoptosis in Candida albicans SC5314 assessed as increase in ROS level at 1 uM/ml incubated for 48 hrs by fluorescence microscopy; type: functional, organism-based
[18] = test system: Candida albicans; assay: Antifungal activity against FLC-resistant Candida albicans 17# assessed as fungal growth inhibition incubated for 72 hrs by CLSI based susceptibility test; type: functional
[19] = target: T2, Programmed cell death 1 ligand 1; assay: Binding affinity to PD-L1 (unknown origin) immobilized on carboxy chip assessed as dissociation constant by SPR analysis
[20] = test system: Candida albicans; assay: Induction of apoptosis in Candida albicans SC5314 assessed as necrotic cells incubated for 48 hrs by annexin V-FITC/PI staining based flow cytometry (reference value: 2.12 %); type: functional

CC(C)OC(=O)[C@@H](Cn1cncn1)NC(=O)C1CCCN(C(=O)c2cccc(-c3ccccc3)c2)C1 (stereo not given in full)
MIC50 [1]: 2 µg/mL (≈ 4.09 µM) | MIC50 [2]: 0.5 µg/mL (≈ 1.02 µM) | MIC50 [3]: 1 µg/mL (≈ 2.04 µM) | MIC50 [4]: 4 µg/mL (≈ 8.17 µM) | MIC50 [5]: 1 µg/mL (≈ 2.04 µM)

Cc1c(CN2CCCC(C(=O)N[C@H](Cn3cncn3)C(=O)OC(C)C)C2)cccc1-c1ccccc1 (stereo not given in full)
MIC50 [1]: 1 µg/mL (≈ 2.04 µM) | MIC50 [2]: 0.125 µg/mL (≈ 0.255 µM) | MIC50 [6]: 4 µg/mL (≈ 8.17 µM) | IC50 [7]: 320 nM | Activity [8]: 4.19% | MIC50 [9]: ≥ 8 µg/mL | MIC50 [3]: 0.5 µg/mL (≈ 1.02 µM) | Activity [10]: 11.25% | MIC50 [11]: 4 µg/mL (≈ 8.17 µM) | MIC50 [12]: 2 µg/mL (≈ 4.08 µM) | IC50 [13]: 35 nM | Activity [14]: 25.91% | Activity [15]: 14.71% | Activity [16]: 34.74% | Activity [17]: Active | MIC50 [18]: 4 µg/mL (≈ 8.17 µM) | Kd [19]: 15 nM | MIC50 [4]: 2 µg/mL (≈ 4.08 µM) | MIC50 [5]: 0.25 µg/mL (≈ 0.511 µM) | Activity [20]: 25.91%

CCOC(=O)[C@@H](Cn1cncn1)NC(=O)C1CCCN(C(=O)c2cccc(-c3ccccc3)c2)C1 (stereo not given in full)
MIC50 [1]: 2 µg/mL (≈ 4.21 µM) | MIC50 [2]: 0.25 µg/mL (≈ 0.526 µM) | MIC50 [3]: 0.5 µg/mL (≈ 1.05 µM) | MIC50 [4]: > 8 µg/mL | MIC50 [5]: 0.5 µg/mL (≈ 1.05 µM)

OC(Cn1cncn1)(Cn1cncn1)c1ccc(F)cc1F [FLUCONAZOLE]
MIC50 [1]: 1 µg/mL (≈ 3.27 µM) | MIC50 [2]: 0.5 µg/mL (≈ 1.63 µM) | MIC50 [6]: ≥ 8 µg/mL | MIC50 [9]: ≥ 8 µg/mL | MIC50 [3]: 0.25 µg/mL (≈ 0.816 µM) | MIC50 [11]: ≥ 8 µg/mL | MIC50 [12]: ≥ 8 µg/mL | MIC50 [18]: ≥ 8 µg/mL | MIC50 [4]: > 8 µg/mL | MIC50 [5]: 0.5 µg/mL (≈ 1.63 µM)

CC(C)OC(=O)[C@@H](Cn1ccnc1)NC(=O)C1CCCN(C(=O)c2cccc(-c3ccccc3)c2)C1 (stereo not given in full)
MIC50 [1]: 0.5 µg/mL (≈ 1.02 µM) | MIC50 [2]: 0.25 µg/mL (≈ 0.512 µM) | MIC50 [6]: 2 µg/mL (≈ 4.09 µM) | IC50 [7]: 410 nM | Activity [8]: 4.96% | MIC50 [9]: 4 µg/mL (≈ 8.19 µM) | MIC50 [3]: 0.25 µg/mL (≈ 0.512 µM) | Activity [10]: 12.71% | MIC50 [11]: ≥ 8 µg/mL | MIC50 [12]: 4 µg/mL (≈ 8.19 µM) | IC50 [13]: 63 nM | Activity [14]: 25.91% | Activity [15]: 16.08% | Activity [16]: 34.74% | Activity [17]: Active | MIC50 [18]: ≥ 8 µg/mL | Kd [19]: 15 nM | MIC50 [4]: 2 µg/mL (≈ 4.09 µM) | MIC50 [5]: 0.5 µg/mL (≈ 1.02 µM) | Activity [20]: 25.91%

CCOC(=O)[C@@H](Cn1cncn1)NC(=O)C1CCCN(Cc2cccc(-c3ccccc3)c2C)C1 (stereo not given in full)
MIC50 [1]: 2 µg/mL (≈ 4.21 µM) | MIC50 [2]: 0.25 µg/mL (≈ 0.526 µM) | MIC50 [3]: 0.5 µg/mL (≈ 1.05 µM) | MIC50 [4]: > 8 µg/mL | MIC50 [5]: 0.5 µg/mL (≈ 1.05 µM)

Cc1c(CN2CCCC(C(=O)N[C@H](Cn3ccnc3)C(=O)OC(C)C)C2)cccc1-c1ccccc1 (stereo not given in full)
MIC50 [1]: 1 µg/mL (≈ 2.05 µM) | MIC50 [2]: 0.5 µg/mL (≈ 1.02 µM) | MIC50 [3]: 0.5 µg/mL (≈ 1.02 µM) | MIC50 [4]: > 8 µg/mL | MIC50 [5]: 1 µg/mL (≈ 2.05 µM)

Cc1c(COc2cccc(CN[C@H](Cn3cncn3)C(=O)OC(C)C)c2)cccc1-c1ccccc1
MIC50 [1]: 2 µg/mL (≈ 4.13 µM) | MIC50 [2]: 2 µg/mL (≈ 4.13 µM) | MIC50 [3]: 0.25 µg/mL (≈ 0.516 µM) | MIC50 [4]: 8 µg/mL (≈ 16.5 µM) | MIC50 [5]: 2 µg/mL (≈ 4.13 µM)

COC(=O)[C@@H](Cn1ccnc1)NC(=O)C1CCCN(Cc2cccc(-c3ccccc3)c2C)C1 (stereo not given in full)
MIC50 [1]: 0.5 µg/mL (≈ 1.09 µM) | MIC50 [2]: 0.5 µg/mL (≈ 1.09 µM) | MIC50 [3]: 2 µg/mL (≈ 4.34 µM) | MIC50 [4]: 4 µg/mL (≈ 8.68 µM) | MIC50 [5]: 1 µg/mL (≈ 2.17 µM)

COC(=O)[C@@H](Cn1cncn1)NC(=O)C1CCCN(Cc2cccc(-c3ccccc3)c2C)C1 (stereo not given in full)
MIC50 [1]: 2 µg/mL (≈ 4.33 µM) | MIC50 [2]: 0.5 µg/mL (≈ 1.08 µM) | MIC50 [3]: 2 µg/mL (≈ 4.33 µM) | MIC50 [4]: 4 µg/mL (≈ 8.67 µM) | MIC50 [5]: 1 µg/mL (≈ 2.17 µM)
